Measured values from US20060280725A1, “Compositions and methods of treating and diagnosing hepatoma” (priority 2003, published 2006).

Legend:
ASCT2/ATB^0 RNA = assay: Northern blot analysis of ASCT2/ATB0 silencing in six human liver cancer cell lines; assay type: cell-based; details: 50 nM
From the text: FIG. 17. […] Panel B are the phospho-imager quantification results of the blot shown in panel A (normalized to beta actin mRNA levels).
RNA was extracted from six (6) human liver cancer cell lines and subject to northern blot analysis using ASCT2/ATB^0 DNA as a probe. Actin RNA was probed as a baseline control. […] Those autoradiograms were subjected to phospho-imager quantitative analysis and normalized to actin RNA expression (FIG. 17, panel B). The designation “L” refers to Liopfectamine™ 200 alone, and “S” refers to Liopfectamine™ 200 plus siRNA at 50 nM.

hepatoma cells [1] = assay: Cell counts after siRNA1 treatment; assay type: cell-based, human
Description: (§1) FIG. 16. […] Panel C are photos from the experiment of panel B.
(§2) The physiological effects of downregulating ASCT2 expression by administration of siRNA1 in hepatoma cells were studied. Glutamine transport, which was measured as nanomoles of glutamine per milligram of total protein per 30s, was examined at 24 hours and at 48 hours in Lipofectamine treated cells and Lipofectamine+50 nM siRNA1. […] Cell counts were made at 48 hours of hepatoma cultures, each of which were started with the same number of viable cells, receiving either Lipofectamine™ 200 alone or Lipofectamine™ 200 plus siRNA1. After 48 hours, a 40% reduction in the number of cells that had received isRNA1 (which comprises SEQ ID NO:3) relative to control cells was observed.

ASCT2 mRNA = assay: Northern blot analysis of ASCT2 mRNA after siRNA transfection; assay type: cell-based, human
Description: FIG. 15. […] B is the phospho-imager quantification of the bands in A. C is the concentration curve for siRNA1, showing that 50 nM is sufficient for maximum silencing of ASCT2 expression.
siRNAs that are specific to ASCT2 were designed using several known algorithms and then checked for specificity. Four (4) siRNAs, i.e., siRNA1 (which comprises SEQ ID NO:3), siRNA2 (which comprises SEQ ID NO:4), siRNA3 (which comprises SEQ ID NO:5), and siRNA4 (which comprises SEQ ID NO:6), were synthesized. SK-Hep cells were transfected with 50 nM concentration of any one of siRNA1, 2, 3 or 4 using Lipofectamine™ 2000 (Invitrogen™ life technologies) based on the protocols set forth in Gitlin, L., Karelsky, S., and Andino, R. (2002), Nature 418: 430-434; Yu, J. Y., DeRuiter, S. L., and Turner, D. L. (2002), Proc. Nat. Acad. Sci. USA 99:6047-6052; and “Transfecting siRNA into Mammalian Cells Using Lipofectamine™ 2000,” Form No. 18057N, Doc. Rev. 102802 by Invitrogen Corporation (2002), which are herein incorporated by reference. At 24 hours and at 48 hours, RNAs were extracted from the transfected cells and the expression of ASCT2 was examined by Northern blot analysis (see FIG. 15A).
Hepatoma cells were then treated with Lipofectamine™ 200 without siRNA1, with 12.5 nM, 25 nM, 50 nM or 100 nM siRNA1.

hepatoma cells [2] = assay: Glutamine transport after siRNA1 treatment; assay type: cell-based, human
Description: as §1, §2

With “siRNA1: siRNA specific to ASCT2, which comprises SEQ ID NO:3 (AGGAGGTGCTCGATTCGTT; listed as DNA, chemistry not given here; listed as Homo sapiens)” the “relative ASCT2/ATB^0 expression (normalized to actin RNA)” value (ASCT2/ATB^0 RNA) was “significant reduction”, the “cellular loss compared to transfection reagent alone” value (hepatoma cells [1]; FIG. 16 panel B) was “leads to cellular loss (death)” and the “reduction in the number of cells relative to control cells” value (hepatoma cells [1]; after 48 hours, vs Lipofectamine alone) was 40%. The “relative effectiveness at reducing ASCT2 expression (mRNA relative to actin)” value (ASCT2 mRNA; SK-Hep, 50 nM siRNA, 24 and 48 hours) was “most effective of the four siRNAs”, the “concentration sufficient for maximum silencing of ASCT2 expression” value (ASCT2 mRNA; tested 12.5, 25, 50, 100 nM) was 50 nM and the “reduction in glutamine transport relative to controls” value (hepatoma cells [2]; 50 nM, 24 and 48 hours, vs Lipofectamine alone, p<0.01) was “greater than 50%”. The “ASCT2 function (glutamine uptake)” value (hepatoma cells [2]; FIG. 16 panel A) was “substantially decreases”.
